Measurements as given in US20240002379A1, “ASYMMETRIC CONJUGATE COMPOUNDS” (Pheon Therapeutics Ltd., priority 2016, published 2024).

Test system: linear double-stranded 32P-end-labelled TyrT DNA fragment
Assay: DNA interstrand cross-linking assay, denaturing polyacrylamide gel
Assay type: biochemical
Settings: overnight incubation at 37° C., 10 concentrations tested, assay repeated twice
Procedure: The ability of 13 to cross-link DNA was determined using an assay involving a linear double-stranded TyrT fragment (FIG. 8).
Following denaturation conditions (treatment with formamide and heating at 65° C. for 5 min) the DNA strands were completely separated (see controls C2 and C4, FIG. 9). The presence of an interstrand cross-link holds the denatured strands in close proximity, and cross-linked adducts therefore run as double-stranded DNA on polyacrylamide gel.
The preparation of the TyrT DNA fragment (FIG. 8) and HexARev DNA fragment (FIG. 15) have been previously described (34). Briefly, the sequence which had been cloned into the BamHI site of pUC18 was obtained by cutting with HindIII and EcoRI. Radiolabelled DNA fragments were prepared by filling in the 3′-end of the HindIII site with [α-^32P]dATP using Klenow DNA polymerase (exo-).
The radiolabelled DNA fragment was separated from the remainder of the plasmid DNA on a 6% non-denaturing polyacrylamide gel. The gel (20 cm long, 0.3 mm thick) was run at 400 V in 1×TBE running buffer for about 1-2 h, until the bromophenol blue had run most of the way down the gel. The glass plates were separated and the position of the labelled DNA fragment was established by short (1 min) exposure to an X-ray film. […]

COc1cc2c(cc1OCCCC(=O)N1C[C@@H](CCl)c3c1cc(O)c1ccccc31)N=C[C@@H]1CCCCN1C2=O [Compound 13, (S)-3-(4-((S)-1-(Chloromethyl)-5-hydroxy-1,2-dihydro-3H-benzo[e]indol-3-yl)-4-oxobutoxy)-2-methoxy-7,8,9,10-tetrahydrobenzo[e]-pyrido[1,2-a][1,4]diazepin-12(6aH)-one]
lowest concentration at which DNA cross-links are visible: 10 nM
